We go through 25 compounds from patent EP1285918A1, “C7 Ester substituted taxanes as antitumor agents” (Florida State University Research Foundation, Inc., priority 2001, dated 2003).

Bounds are passed on as bounds.

The subject of this experiment is HCT116. Description: In Vitro cytotoxicity measured by the cell colony formation assay. In kind it is cell-based. The conditions noted are these: Homo sapiens, HCT-116; 72 h drug incubation, colonies counted after 7 days; concentration producing 50% inhibition of colony formation; read-out: IN VITRO ID 50 (nm) HCT116. How it is done:
In Vitro cytotoxicity measured by the cell colony formation assay
Four hundred cells (HCT116) were plated in 60 mm Petri dishes containing 2.7 mL of medium (modified McCoy's 5a medium containing 10% fetal bovine serum and 100 units/mL penicillin and […] streptomycin). The cells were incubated in a CO2 incubator at 37 °C for 5 h for attachment to the bottom of Petri dishes. The compounds identified in Example 2 were made up fresh in medium at ten times the final concentration, and then 0.3 mL of this stock solution was added to the 2.7 mL of medium in the dish. The cells were then incubated with drugs for 72 h at 37 ° C. At the end of incubation the drug-containing media were decanted, the dishes were rinsed with 4 mL of Hank's Balance Salt Solution (HBSS), 5 mL of fresh medium was added, and the dishes were returned to the incubator for colony formation. The cell colonies were counted using a colony counter after incubation for 7 days. Cell survival was calculated and the values of ID50 (the drug concentration producing 50% inhibition of colony formation) were determined for each tested compound.
On to `C/C=C/C(=O)N[C@@H](c1ccco1)[C@@H](O)C(=O)O[C@H]1C[C@@]2(O)[C@@H](OC(=O)c3ccccc3)[C@@H]3[C@]4(OC(C)=O)CO[C@@H]4C[C@H](OC(=O)C(C)C)[C@@]3(C)C(=O)[C@H](O)C(=C1C)C2(C)C` [Compound 6202], for which the IC50 is less than 1 nM.
With `CCCC(=O)O[C@H]1C[C@H]2OC[C@@]2(OC(C)=O)[C@H]2[C@H](OC(=O)c3ccccc3)[C@]3(O)C[C@H](OC(=O)[C@H](O)[C@@H](NC(=O)c4cccs4)c4cccs4)C(C)=C([C@@H](O)C(=O)[C@]12C)C3(C)C` [Compound 4454], the IC50 was less than 1 nM.
Then `C/C=C/C(=O)N[C@@H](c1ccoc1)[C@@H](O)C(=O)O[C@H]1C[C@@]2(O)[C@@H](OC(=O)c3ccccc3)[C@@H]3[C@]4(OC(C)=O)CO[C@@H]4C[C@H](OC(=O)CCC)[C@@]3(C)C(=O)[C@H](O)C(=C1C)C2(C)C` [Compound 4939], with less than 1 nM.
As for `CC(=O)O[C@@]12CO[C@@H]1C[C@H](OC(=O)C(C)C)[C@@]1(C)C(=O)[C@H](O)C3=C(C)[C@@H](OC(=O)[C@H](O)[C@@H](NC(=O)OC(C)(C)C)c4cccs4)C[C@@](O)([C@@H](OC(=O)c4ccccc4)[C@H]21)C3(C)C` [Compound 6333], the figure is less than 1 nM.
As for `CCC(=O)O[C@H]1C[C@H]2OC[C@@]2(OC(C)=O)[C@H]2[C@H](OC(=O)c3ccccc3)[C@]3(O)C[C@H](OC(=O)[C@H](O)[C@@H](NC(=O)OC(C)(C)C)c4ccccn4)C(C)=C([C@@H](O)C(=O)[C@]12C)C3(C)C` [Compound 1364], the figure is less than 10 nM; as for `CCC(=O)O[C@H]1C[C@H]2OC[C@@]2(OC(C)=O)[C@H]2[C@H](OC(=O)c3ccccc3)[C@]3(O)C[C@H](OC(=O)[C@H](O)[C@@H](NC(=O)OC(C)C)c4ccco4)C(C)=C([C@@H](O)C(=O)[C@]12C)C3(C)C` [Compound 3444], less than 1 nM; as for `CCC(=O)O[C@H]1C[C@H]2OC[C@@]2(OC(C)=O)[C@H]2[C@H](OC(=O)c3ccccc3)[C@]3(O)C[C@H](OC(=O)[C@H](O)[C@@H](NC(=O)OCC(C)C)c4cccs4)C(C)=C([C@@H](O)C(=O)[C@]12C)C3(C)C` [Compound 3232], less than 1 nM.
Turning to `CCC(=O)O[C@H]1C[C@H]2OC[C@@]2(OC(C)=O)[C@H]2[C@H](OC(=O)c3ccccc3)[C@]3(O)C[C@H](OC(=O)[C@H](O)[C@@H](NC(=O)OC(C)(C)C)C4CCC4)C(C)=C([C@@H](O)C(=O)[C@]12C)C3(C)C` [Compound 1447], the IC50 is less than 10 nM.
Then `CCCC(=O)O[C@H]1C[C@H]2OC[C@@]2(OC(C)=O)[C@H]2[C@H](OC(=O)c3ccccc3)[C@]3(O)C[C@H](OC(=O)[C@H](O)[C@@H](NC(=O)c4ccccc4)c4cccs4)C(C)=C([C@@H](O)C(=O)[C@]12C)C3(C)C` [Compound 4414], with less than 1 nM; and `CCOC(=O)NC(c1cccs1)C(O)C(=O)OC1CC2(O)C(OC(=O)c3ccccc3)C3C4(OC(C)=O)COC4CC(OC(=O)CC)C3(C)C(=O)C(O)C(=C1C)C2(C)C` (stereo not shown) [Compound 4044], with less than 1 nM.
Consider `CCC(=O)O[C@H]1C[C@H]2OC[C@@]2(OC(C)=O)[C@H]2[C@H](OC(=O)c3ccccc3)[C@]3(O)C[C@H](OC(=O)[C@H](O)[C@@H](NC(=O)OCC(C)C)c4ccoc4)C(C)=C([C@@H](O)C(=O)[C@]12C)C3(C)C` [Compound 4787], for which the IC50 is less than 10 nM.
Consider `CCC(C)(C)OC(=O)N[C@@H](c1ccco1)[C@@H](O)C(=O)O[C@H]1C[C@@]2(O)[C@@H](OC(=O)c3ccccc3)[C@@H]3[C@]4(OC(C)=O)CO[C@@H]4C[C@H](OC(=O)CC(C)C)[C@@]3(C)C(=O)[C@H](O)C(=C1C)C2(C)C` [Compound 6282], for which the IC50 is less than 10 nM.
Then `CCC(=O)OC1CC2OCC2(OC(C)=O)C2C(OC(=O)c3ccccc3)C3(O)CC(OC(=O)C(O)C(NC(=O)c4cccs4)c4ccco4)C(C)=C(C(O)C(=O)C12C)C3(C)C` (stereo not shown) [Compound 3632], with less than 1 nM.
As for `CCC(=O)O[C@H]1C[C@H]2OC[C@@]2(OC(C)=O)[C@H]2[C@H](OC(=O)c3ccccc3)[C@]3(O)C[C@H](OC(=O)[C@H](O)[C@@H](NC(=O)OC(C)(C)C)c4ccncc4)C(C)=C([C@@H](O)C(=O)[C@]12C)C3(C)C` [Compound 1386], the figure is less than 1 nM; as for `CCC(=O)OC1CC2OCC2(OC(C)=O)C2C(OC(=O)c3ccccc3)C3(O)CC(OC(=O)C(O)C(NC(=O)C=C(C)C)c4cccs4)C(C)=C(C(O)C(=O)C12C)C3(C)C` (stereo not shown) [Compound 4312], less than 1 nM.
On to `C/C=C/C(=O)N[C@@H](c1ccoc1)[C@@H](O)C(=O)O[C@H]1C[C@@]2(O)[C@@H](OC(=O)c3ccccc3)[C@@H]3[C@]4(OC(C)=O)CO[C@@H]4C[C@H](OC(=O)CC)[C@@]3(C)C(=O)[C@H](O)C(=C1C)C2(C)C` [Compound 4898], for which the IC50 was less than 1 nM.
In the case of `CCCC(=O)OC1CC2OCC2(OC(C)=O)C2C(OC(=O)c3ccccc3)C3(O)CC(OC(=O)C(O)C(NC(=O)OC(C)(C)C)c4cccs4)C(C)=C(C(O)C(=O)C12C)C3(C)C` (stereo not shown) [Compound 4256], the IC50 is less than 1 nM.
Consider `CCC(=O)OC1CC2OCC2(OC(C)=O)C2C(OC(=O)c3ccccc3)C3(O)CC(OC(=O)C(O)C(NC(=O)OCC(C)C)c4ccsc4)C(C)=C(C(O)C(=O)C12C)C3(C)C` (stereo not shown) [Compound 4544], for which the IC50 is less than 10 nM.
Then `C/C=C/C(=O)N[C@@H](c1cccs1)[C@@H](O)C(=O)O[C@H]1C[C@@]2(O)[C@@H](OC(=O)c3ccccc3)[C@@H]3[C@]4(OC(C)=O)CO[C@@H]4C[C@H](OC(=O)CC)[C@@]3(C)C(=O)[C@H](O)C(=C1C)C2(C)C` [Compound 3560], with less than 1 nM.
As for `CCCC(=O)N[C@@H](c1cccs1)[C@@H](O)C(=O)O[C@H]1C[C@@]2(O)[C@@H](OC(=O)c3ccccc3)[C@@H]3[C@]4(OC(C)=O)CO[C@@H]4C[C@H](OC(=O)CC)[C@@]3(C)C(=O)[C@H](O)C(=C1C)C2(C)C` [Compound 3327], the figure is less than 10 nM.
In the case of `CCCC(=O)O[C@H]1C[C@H]2OC[C@@]2(OC(C)=O)[C@H]2[C@H](OC(=O)c3ccccc3)[C@]3(O)C[C@H](OC(=O)[C@H](O)[C@@H](NC(=O)OCC(C)C)c4ccoc4)C(C)=C([C@@H](O)C(=O)[C@]12C)C3(C)C` [Compound 4828], the IC50 was less than 10 nM.
As for `CCCC(=O)O[C@H]1C[C@H]2OC[C@@]2(OC(C)=O)[C@H]2[C@H](OC(=O)c3ccccc3)[C@]3(O)C[C@H](OC(=O)[C@H](O)[C@H](C=C(C)C)NC(=O)OCC(C)C)C(C)=C([C@@H](O)C(=O)[C@]12C)C3(C)C` [Compound 5131], the figure is less than 10 nM; as for `CCC(C)(C)OC(=O)N[C@@H](c1ccco1)[C@@H](O)C(=O)O[C@H]1C[C@@]2(O)[C@@H](OC(=O)c3ccccc3)[C@@H]3[C@]4(OC(C)=O)CO[C@@H]4C[C@H](OC(=O)C(C)C)[C@@]3(C)C(=O)[C@H](O)C(=C1C)C2(C)C` [Compound 6252], less than 1 nM; as for `CCCC(=O)N[C@@H](c1ccco1)[C@@H](O)C(=O)O[C@H]1C[C@@]2(O)[C@@H](OC(=O)c3ccccc3)[C@@H]3[C@]4(OC(C)=O)CO[C@@H]4C[C@H](OC(=O)CC)[C@@]3(C)C(=O)[C@H](O)C(=C1C)C2(C)C` [Compound 3171], less than 1 nM.
As for `CCC(=O)O[C@H]1C[C@H]2OC[C@@]2(OC(C)=O)[C@H]2[C@H](OC(=O)c3ccccc3)[C@]3(O)C[C@H](OC(=O)[C@H](O)[C@@H](NC(=O)c4ccco4)c4cccs4)C(C)=C([C@@H](O)C(=O)[C@]12C)C3(C)C` [Compound 3069], the figure is less than 1 nM.
